Inhibition data for 7 compounds are collected here from patent US5136090A, “Biphenyl-5,5'-bis-alkanoic acid derivatives, their production and aldose reductase inhibitors containing the same” (Toyo Jozo Kabushiki Kaisha, priority 1990, dated 1992).

The test system of one assay is Sciatic Nerve. The experiment in a line: Suppression of sorbitol accumulation in cultured sciatic nerve. As to conditions: Rattus norvegicus, 20 h, concentration 1.0 μg/ml; rat sciatic nerve cultured 20 hours with 0.9% glucose. It counts as cell-based, Wistar rats. The protocol: (§1) Lenses and sciatic nerves extirpated from Wistar rats, male, aged 7 weeks, were washed twice with an aseptic buffer solution consisting of 0.3% trisaminomethane, 0.8% NaCl, 0.038% KCl, 0.025% Na2 HPO4 ·12H2 O, 0.1% glucose and 1.85 ml/l of concentrated HCl.
(§2) The lenses and the sciatic nerves were then preincubated for 30 mins. in a culture medium prepared by adding 2 ml of 7.5% NaHCO3 aseptic solution and 5.5 ml of aseptic calf fetus serum to 100 ml of an aseptic culture medium of 0.98% TC Medium 199 (NISSUI Corp.) containing 0.01% of dihydrostreptomycin and 0.01% of benzylpenicillin. Thereafter, the intrinsic culture was effected in a culture medium prepared by adding each sample solution to be examined and 0.9% of glucose to the abovementioned culture medium and permitting culturing to proceed for 20 hours. The incubation was effected at 37° C. in an atmosphere composed of 95% air and 5% CO2.
(§3) After culturing, the cultured samples of lens and sciatic nerve were removed from the culture medium to filter paper and the weight of each of them was measured after the adherent culture solution had been blown off. Then, each of the cultured samples was homogenized with the addition of 1 ml of a cold 8% HClO4 solution and the homogenized mixture was subjected to centrifugation at 10,000 G for 10 mins., whereby a supernatant was obtained. The resulting precipitate was then homogenized again with addition thereto of 0.5 ml of cold 8% HClO4 solution and the homogenized mixture was again subjected to centrifugation in a similar way as above to obtain a further supernatant. This was combined with the previously obtained supernatant and the resulting solution was neutralized with 2N KOH aq. solution and was supplemented with distilled water to a volume of 5 ml. The precipitate formed by neutralization was separated by centrifugation at 3,000 rpm for 10 mins. and the resulting supernatant was employed as the sample for determining the sorbitol content.
(§4) The determination of the sorbitol content in the lens and in the sciatic nerve was carried out in accordance with the method of Bergmeyer in "Methods of Enzymatic Analysis" edited by H. U. Bergmeyer, pp 1323-1326, Academic Press, New York, 1974 and in accordance with the method of Malaon et al. in "Diabetes" 29, 861-864 (1980).
(§5) To 0.5 ml cf the sample solution for determination of sorbitol content obtained as above, 0.9 ml of 0.1M glycine-KOH buffer solution (pH 9.4) containing 1 mM of NAD^+ and 0.1 ml of a solution of sorbitol dehydrogenase of 20 units/ml were added and the resulting mixture was subjected to incubation at 37° C. for 1 hour.
(§6) The content of sorbitol in each tissue was estimated by assuming the increment of the optical absorption at 340 nm to be proportional to the amount of NADH produced by the reaction for the lens and by detecting the fluorescence with an excitation wavelength of 366 nm and a fluorescence wavelength of 425 nm for the sciatic nerve.
(§7) The activity for suppressing accumulation of sorbitol, i.e. the aldose reductase inhibiting activity, was calculated from the determined sorbitol content by the calculation formula [formula] in which A denotes the content of sorbitol per unit weight of the tissue after cultivation with addition of the inhibitor, B denotes the sorbitol content per unit weight of the tissue after cultivation without addition of the inhibitor and C represents the sorbitol content per unit weight of the tissue after cultivation in the medium without addition of glucose and inhibitor.

Another assay has as its system Lens. Put plainly: Suppression of sorbitol accumulation in cultured lens. As to conditions: rat lens cultured 20 hours with 0.9% glucose; for inhibition at 5 µg/mL: concentration 5 μg/ml; for inhibition at 2.5 µg/mL: concentration 2.5 μg/ml. It is filed as cell-based, Wistar rats. The method, then: as §1, §2, §3, §4, §5, §6, §7
The target in assay [1] is T1, partially purified bovine lens aldose reductase (Bos taurus, UniProt P16116).
T1 construct: partially purified bovine lens aldose reductase; from tissue; host or cells: bovine lens
The experiment in a line: Inhibitory activity on aldose reductase enzyme reaction. The following applies: for inhibition at 0.1 µg/mL: concentration 0.1 μg/ml; for inhibition at 1 µg/mL: concentration 1.0 μg/ml; for inhibition at 0.02 µg/mL: concentration 0.02 μg/ml. It is filed as biochemical. The method, then:
The preparation of aldose reductase and the determination of its inhibitory action on enzyme reaction activity were carried out pursuant to the procedures disclosed by Haymann et al. in Journal of Biological Chemistry, 240, 877 (1965).
The sample solution to be examined for inhibitory activity was prepared by dissolving a compound of formula (I) according to the present invention in a small amount of methanol and increasing the volume of the resulting methanol solution by diluting it with distilled water up to tenfold volume. A partially purified bovine lens aldose reductase was used for the assay.
To 2.4 ml of a solution of 5×10^-5 M NADPH dissolved in a 2/15M phosphate buffer solution (pH 6.0), 0.4 ml of the enzyme solution (15 m units/ml) and 0.1 ml of the sample solution to be examined were added and the mixture was introduced into a quartz cell in a photoelectric photometer and subjected to pre-incubation at 37° C. for 4 mins. Then, 0.1 ml of a 0.015M D,L-glyceraldehyde solution was added thereto for initiating the enzyme reaction and the decrease in the optical absorption at 340 nm was measured at 37° C. for 4 mins. The inhibitory activity on aldose reductase was calculated by the following equation: [formula] in which A represents the enzyme reaction rate with addition of the inhibitor and B denotes the enzyme reaction rate without addition of the inhibitor.

Take `CCCCCCCOc1ccc(CCC(=O)O)cc1-c1cc(CCC(=O)O)ccc1O` [Example 9, 2-heptyloxy-2'-hydroxy-5,5'-bis (2-carboxyethyl) biphenyl]: the inhibition at 1 µg/mL in the assay with Sciatic Nerve was 37.8%; in assay [1], 91.9%. Moreover, in the assay on Lens, the inhibition at 5 µg/mL is 65%. The same compound yielded an inhibition at 0.1 µg/mL in assay [1] of 65.3%.

`CCCCCCCCOc1ccc(CCC(=O)O)cc1-c1cc(CCC(=O)O)ccc1O` [Example 10, 2-octyloxy-2'-hydroxy-5,5'-bis (2-carboxyethyl) biphenyl]: the inhibition at 1 µg/mL with Sciatic Nerve was found to be 33.6%; in assay [1] it was 93.7%. Moreover, in the assay with Lens, the inhibition at 5 µg/mL is 37.7%. The same compound came in with an inhibition at 0.1 µg/mL in assay [1] of 67.4%.

Regarding `CC(C)CCOc1ccc(CCC(=O)O)cc1-c1cc(CCC(=O)O)ccc1O` [Example 12, 2-isopentyloxy-2'-hydroxy-5, 5'-bis (2-carboxyethyl) biphenyl], the inhibition at 1 µg/mL worked out at 59.5% in the assay on Sciatic Nerve and 89.1% in assay [1]. This compound also had an inhibition at 5 µg/mL in the assay with Lens of 78.1%. This compound gave an inhibition at 0.1 µg/mL in assay [1] of 61.9%.

As to `COc1ccc(CCC(=O)O)cc1-c1cc(CCC(=O)O)ccc1O` [Example 16, 2-methoxy-2'-hydroxy-5,5'-bis (2-carboxyethyl) biphenyl], the inhibition at 1 µg/mL with Sciatic Nerve came out at 47.7%. Also, in the assay on Lens, the inhibition at 2.5 µg/mL is 59.3%. Moreover, in assay [1], the inhibition at 0.02 µg/mL was found to be 21.1% and 0.1 µg/mL produced 51.4% inhibition.

On to `CCOc1ccc(CCC(=O)O)cc1-c1cc(CCC(=O)O)ccc1O` [Example 17, 2-ethoxy-2'-hydroxy-5,5'-bis (2-carboxyethyl) biphenyl], for which the inhibition at 1 µg/mL in the assay on Sciatic Nerve worked out at 69.2%. For the same compound, at 2.5 µg/mL the inhibition with Lens was 47.2%. In assay [1], this compound displayed an inhibition at 0.02 µg/mL of 19.5% and an inhibition at 0.1 µg/mL of 55%.

`COc1ccc(CCCC(=O)O)cc1-c1cc(CCCC(=O)O)ccc1O` [Example 21, 2-methoxy-2'-hydroxy-5,5'-bis (3-carboxypropyl) biphenyl] yielded an inhibition at 1 µg/mL in the assay on Sciatic Nerve of 75.4%. This compound also came in with an inhibition at 2.5 µg/mL in the assay on Lens of 48.8%. For the same compound, in assay [1], the inhibition at 0.02 µg/mL worked out at 14.7% and at 0.1 µg/mL the inhibition was 52.7%.

`CCCOc1ccc(CCCC(=O)O)cc1-c1cc(CCCC(=O)O)ccc1O` [Example 23, 2-propoxy-2'-hydroxy-5,5'-bis (3-carboxypropyl) biphenyl] returned an inhibition at 1 µg/mL in the assay with Sciatic Nerve of 81.1%. Besides, the inhibition at 2.5 µg/mL with Lens was determined as 55.3%. In assay [1], this compound gave an inhibition at 0.02 µg/mL of 33.6% and an inhibition at 0.1 µg/mL of 69.2%.

The term inhibition denotes how much of the control response was suppressed. Lower therefore signals a response near the control.
